Measured values from PMC11609934, “Exploration and characterization of the antimalarial activity of cyclopropyl carboxamides that target the mitochondrial protein, cytochrome b” (European Journal of Medicinal Chemistry, 2024).
Like-named read-outs stand apart in the source and are kept apart here.

Columns and labels:
[1] = system: W466-resistant populations; test: 72 h growth assay against W466-resistant populations; assay type: cell-based, Plasmodium falciparum; conditions: for EC50: Plasmodium falciparum
Description: To determine the mechanism of action of the cyclopropyl carboxamide series, a forward genetic resistance study was undertaken on the two hit compounds W466 (1) and W499 (2).
The structures of W466 (1) and W499 (2) are slightly different although they appear to belong to the same structural class. To confirm if W466 (1) and W499 (2) may have the same molecular target, W466 (1) and W499 (2) were each evaluated for cross resistance against their respective resistant populations from the pulsed forward genetic study (Fig. 2).

[2] = system: W499-resistant populations; test: microbe, parasite or virus in culture; assay type: cell-based, Plasmodium falciparum; conditions: for EC50: Plasmodium falciparum
Description: To confirm if W466 (1) and W499 (2) may have the same molecular target, W466 (1) and W499 (2) were each evaluated for cross resistance against their respective resistant populations from the pulsed forward genetic study (Fig. 2).

[3] = system: ring-stage P. falciparum parasites; test: Asexual stage of arrest assay; assay type: cell-based, Plasmodium falciparum; conditions: 10 times EC50, sampled every 12 h for 48 h
Procedure: Characterization of asexual stage phenotype and rate of asexual kill is important in determining the downstream application and TCP of an antimalarial series. […] Parasites were sampled every 12 h for 48 h, to prepare Giemsa-stained blood smears for analysis by microscopy. Parasitemia of each sample was measured by flow cytometry using SYBR-Green DNA staining.
Asexual Stage of Arrest Assay. This assay was conducted as previously described.

male gamete = test: Dual gamete formation assay, male gametes; assay type: cell-based; conditions: Plasmodium falciparum; NF54 parasites in a DGFA, 4 replicates
Procedure: (§1) To determine whether the cyclopropyl carboxamide class has transmission blocking potential we profiled selected analogs in a dual gamete formation assay. In this assay, stage V gametocytes are treated with compound, and gametogenesis is induced by the addition of xanthurenic acid. Male gamete viability is determined by an imaging algorithm measuring motile flagellation, while female viability is measured using an antibody to the female-specific Pfs25 surface marker. […] Collectively, the activity observed against male gametes is consistent with activity observed with other cyt b inhibitors.
(§2) Dual Gamete Formation Assay. Compounds were evaluated as previously described as a platform run at both Imperial College London and the London School of Hygiene and Tropical Medicine. Briefly, mature stage V gametocytes were exposed to compounds for 48 h at 37 °C in 384 well plates in gametocyte culture medium (RPMI 1640 supplemented with 25 mM HEPES, 50 μg/mL hypoxanthine, 4.8 g/L NaHCO3, 2 mM L-glutamine, 5 % pooled type AB serum, 0.5 % Albumax II (Gibco)) under a 1 % O2/3 % CO2/96 % N2 environment. Gametogenesis was then triggered by the addition of 10 μL ookinete medium (gametocyte culture medium supplemented with 100 μM xanthurenic acid and 0.27 μg/mL Cy3-labelled anti-Pfs25 antibody) to each well at room temperature. Plates were then cooled on a metal block at 4 °C for 4 min to ensure even cooling and then stabilized for a further 4 min at 28 °C. At 20 min post-induction, male gametogenesis was recorded in each well by automated brightfield microscopy using a × 4 objective lens and 1.5 × magnifier ( × 6 effective magnification). Afterward, plates were incubated in the dark at room temperature for 24 h and then female gametogenesis recorded in each well by automated fluorescence microscopy (anti-Pfs25-positive cells). […] All data was evaluated in comparison to the positive and negative controls to calculate percentage inhibition of male and female gametocytes, and dose response analysis and EC50 calculation performed using GraphPad Prism.

female gamete = test: Dual gamete formation assay, female gametes; assay type: cell-based; conditions: Plasmodium falciparum; NF54 parasites in a DGFA, 4 replicates
Procedure: as §1, §2

Pf Dd2 parental line = test: Asexual stage assay, Dd2 parental line (SYBR green by FACS, 72 h); assay type: cell-based; conditions: Plasmodium falciparum, DD2, 72 h, read-out: Pf Dd2 EC50 (SD), 72 h, SYBR green by FACS, 3 experiments
Procedure: Cyt b Resistant and ScDHODH Asexual Stage Assays. These assays were conducted as previously described. Briefly, asexual parasite strains indicated in Table 12 were incubated with compound in a dose response format for 72 h. Parasitemia was determined using SYBR-green fluorescence measured by flow cytometry (Thermo Fisher Attune). EC50 values were determined as described for the LDH assay.

[4] = system: P. berghei ANKA parasites; test: P. berghei 4-day mouse model; assay type: in vivo, Plasmodium berghei
Procedure: The 4-day P. berghei mouse model is used to determine the preliminary in vivo efficacy of antimalarials at an early stage of optimization. To determine if cyclopropyl carboxamide series could reduce asexual blood stage infection, we evaluated representative compounds WJM280 (108) and analog 109 in the 4-day P. berghei mouse model. In this model, mice were infected P. berghei asexual stage parasites, and then 2 h after the infection, WJM280 (108) and analog 109 at 50 mg/kg and artesunate at 30 mg/kg were administered by oral gavage. The same compound doses were administered again, 24, 48, and 72 h post infection. Parasitemia was then quantified by preparing blood smears and visualizing by microscopy across days 2, 3, and 4. […] The inability of these compounds to reduce parasitemia was attributed to their high metabolic turnover, which is a characteristic that needs improving on further development of the cyclopropyl carboxamide class.
P. berghei 4-day Mouse Model. This model was conducted as previously described.

| Structure (SMILES) | fold shift in EC50 against W466-resistant populations compared to wildtype 3D7 [1] | EC50 ([1]; read-out: EC50 against W466-resistant parasites) | EC50 ([1]; read-out: W466-resistant populations EC50 (SD) #1) | EC50 ([1]; read-out: W466-resistant populations EC50 (SD) #2) | EC50 ([1]; read-out: W466-resistant populations EC50 (SD) #3) | fold shift in EC50 against W499-resistant populations compared to wildtype 3D7 [2] | EC50 ([2]; read-out: W499-resistant population #2 EC50) | EC50 ([2]; read-out: W499-resistant population #3 EC50) | asexual stage of arrest [3] | EC50 (male gamete) | EC50 (female gamete) | EC50 (Pf Dd2 parental line) | body weights of mice ([4]; 50 mg/kg q.d. oral, 4 days) | % parasitemia ([4]; mice, day 4, oral gavage q.d. x4, 50 mg/kg (ART 30 mg/kg)) | % reduction in parasitemia ([4]; versus vehicle control, mice, day 4, oral gavage q.d. x4, 50 mg/kg (ART 30 mg/kg)) |
| --- | --- | --- | --- | --- | --- | --- | --- | --- | --- | --- | --- | --- | --- | --- | --- |
| O=C(NC1CC1)c1ccc(CN(Cc2ccc(Cl)cc2Cl)C2CC2)cc1 [W499 (2)] | 2 fold | 0.22 to 0.28 µM | 0.283 µM | 0.243 µM | 0.215 µM | 1.6–1.9 fold | 0.206 µM | 0.177 µM | parasite arrest at the start of the trophozoite stage | 0.76 µM | > 25 µM | – | – | – | – |
| CCCN(Cc1ccc(C(=O)NC2CC2)cc1)Cc1ccc(C(F)(F)F)cc1 [WJM280 (108), N-Cyclopropyl-4-((propyl(4-(trifluoromethyl)benzyl)amino)methyl)benzamide] | – | – | – | – | – | – | – | – | – | – | – | 0.01 µM | remained unchanged | 81% | 19% |
